Source: US20260216359A1, “CYCLIC PEPTIDE-BASED LYSOSOME TARGETING DEGRADERS” (Wisconsin Alumni Research Foundation, priority 2023, published 2026)

Legend:
α5β1 = α5β1 (Homo sapiens, UniProt P05556+P08648); conditions: Kapp et al., 2017; one range given for αvβ5, αvβ6, α5β1; cited from earlier work
anti-biotin-647 = assay: lysosomal degradation of anti-biotin-647 in MCF7 cells, in gel fluorescence; format: cell-based; conditions: 25 nM Ab-cRGD and 50 nM anti-biotin-647 for 3 h, then 50 nM BAF1 for 3 h
Experimental: MCF7 cells were seeded in a 48-well plate at 70% confluence and maintained in 200 μL complete culture media. Next day, cells were incubated with 25 nM of Ab-cRGD and 50 nM of anti-biotin-647 for 3 h followed by three washes with PBS. Cells were then maintained in fresh media with or without 50 nM Bafilomycin A1 (BAF1) for another 3 h before harvested for in gel fluorescence analysis.

EGFR = assay: inhibition of Ctx-PEG12-cRGD-induced EGFR degradation in MCF7 cells, western blot; format: cell-based; conditions: BAF1 50 nM, CQ 10 uM, in the presence of 10 nM Ctx-PEG12-cRGD for 6h
Experimental: MCF7 cells were seeded at 70% confluence in a 24-well plate and incubated in 350 μL complete culture media overnight. Cells were pre-treated with free excess cRGD-azide with concentrations indicated in the figure at 4° C. for 1 h before incubating with 10 nm Ctx-PEG12-cRGD for 8 h. Cells were then harvested for western blot.
MCF7 cells were seeded at 70% confluence in a 24-well plate and incubated in 350 μL complete culture media overnight. Cells were treated with lysosomal degradation inhibitor Bafilomycin A1 (BAF1) at 50 nM and Chloroquine (CQ) at 10 uM in the presence of 10 nM Ctx-PEG12-cRGD for 6h.

Chain of α5β1 (P08648 42-894 limits assumed): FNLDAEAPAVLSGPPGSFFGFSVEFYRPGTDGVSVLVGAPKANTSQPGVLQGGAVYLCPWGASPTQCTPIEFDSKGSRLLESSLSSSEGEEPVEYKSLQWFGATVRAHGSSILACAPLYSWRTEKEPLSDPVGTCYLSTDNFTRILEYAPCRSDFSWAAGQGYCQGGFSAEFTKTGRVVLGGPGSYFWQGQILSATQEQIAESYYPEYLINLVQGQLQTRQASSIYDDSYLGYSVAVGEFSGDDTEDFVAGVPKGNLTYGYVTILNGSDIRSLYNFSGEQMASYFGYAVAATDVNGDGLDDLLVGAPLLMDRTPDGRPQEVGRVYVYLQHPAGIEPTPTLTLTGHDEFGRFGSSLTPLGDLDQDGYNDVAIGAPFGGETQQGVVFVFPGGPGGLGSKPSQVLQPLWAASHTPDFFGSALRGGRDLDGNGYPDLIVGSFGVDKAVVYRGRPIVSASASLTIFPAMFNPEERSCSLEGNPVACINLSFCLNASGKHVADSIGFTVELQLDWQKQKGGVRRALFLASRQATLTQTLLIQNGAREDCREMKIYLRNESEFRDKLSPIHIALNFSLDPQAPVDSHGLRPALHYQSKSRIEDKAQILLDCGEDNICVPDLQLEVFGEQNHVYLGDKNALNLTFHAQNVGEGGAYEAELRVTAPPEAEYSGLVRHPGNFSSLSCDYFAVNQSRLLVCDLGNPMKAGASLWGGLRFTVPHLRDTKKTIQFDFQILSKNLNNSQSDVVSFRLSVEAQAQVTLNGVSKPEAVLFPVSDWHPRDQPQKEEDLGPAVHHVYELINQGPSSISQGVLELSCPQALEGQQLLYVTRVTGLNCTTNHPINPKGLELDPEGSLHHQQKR
Chain of α5β1 (P08648 895-995 partner limits assumed): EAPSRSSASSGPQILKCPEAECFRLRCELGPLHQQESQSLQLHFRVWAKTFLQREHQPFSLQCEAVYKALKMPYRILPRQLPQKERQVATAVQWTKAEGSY
Chain of α5β1 (P05556 21-728 limits assumed): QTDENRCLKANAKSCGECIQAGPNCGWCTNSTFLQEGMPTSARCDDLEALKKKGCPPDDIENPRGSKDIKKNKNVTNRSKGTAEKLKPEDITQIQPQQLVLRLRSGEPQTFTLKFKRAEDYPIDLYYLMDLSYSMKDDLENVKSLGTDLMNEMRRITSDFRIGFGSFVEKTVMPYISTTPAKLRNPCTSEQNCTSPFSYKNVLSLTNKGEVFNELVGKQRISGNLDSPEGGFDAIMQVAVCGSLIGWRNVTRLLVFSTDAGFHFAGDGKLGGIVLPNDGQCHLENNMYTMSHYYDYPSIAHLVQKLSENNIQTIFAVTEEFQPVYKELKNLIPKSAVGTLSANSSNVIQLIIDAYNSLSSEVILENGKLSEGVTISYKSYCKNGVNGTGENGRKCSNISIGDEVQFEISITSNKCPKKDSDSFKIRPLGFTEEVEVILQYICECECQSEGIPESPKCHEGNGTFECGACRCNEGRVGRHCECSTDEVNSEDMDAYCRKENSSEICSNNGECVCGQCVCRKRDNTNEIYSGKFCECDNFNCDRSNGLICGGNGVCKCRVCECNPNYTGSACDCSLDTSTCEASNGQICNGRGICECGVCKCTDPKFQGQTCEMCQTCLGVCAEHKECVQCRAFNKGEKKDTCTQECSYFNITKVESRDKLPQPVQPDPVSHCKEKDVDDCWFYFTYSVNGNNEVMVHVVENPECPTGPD

In the case of cyclo(Arg-Gly-Asp-D-Phe-Lys) [cRGD], the “binding to α5β1” value (α5β1) is given as 50 to 350 nM.
With `CO/C1=C\C(C)=C\[C@@H](C)[C@@H](O)[C@@H](C)C/C(C)=C/C=C/[C@H](OC)[C@@H]([C@@H](C)[C@@H](O)[C@H](C)[C@@]2(O)C[C@@H](O)[C@H](C)[C@@H](C(C)C)O2)OC1=O` [Bafilomycin A1] the “inhibition of lysosomal degradation of anti-biotin-647 (FIG. 14)” value (anti-biotin-647) was “inhibition of lysosomal degradation of anti-biotin-647” and the “inhibition of EGFR degradation by lysosomal degradation inhibitors (FIG. 16)” value (EGFR) was “inhibition of EGFR degradation”.
In the case of `CCN(CC)CCCC(C)Nc1ccnc2cc(Cl)ccc12` (stereo not shown) [Chloroquine], the “inhibition of EGFR degradation by lysosomal degradation inhibitors (FIG. 16)” value (EGFR) was “inhibition of EGFR degradation”.
